As usually defined, the Ki is a dissociation constant, usually derived from enzyme kinetics or from competition with a known ligand. Usually IC50 stands for the midpoint of a concentration-inhibition curve. What is called EC50 is the concentration at which the effect is half-maximal.

Assay [1] addresses T1, Human CB1 receptor (Homo sapiens, UniProt P21554). In words: Radioligand binding assay vs [3H]CP55,940, membranes of CHO cells expressing human CB1. The note with it: CHO cell membranes. How it is done:
(§1) Radioligand b inding assays at CB1 and CB 2 receptors
(§2) Competition binding assays were performed using the CB receptor agonist radioligand [3H](−)- cis-3-[2-hydroxy-4-(1,1-dimethylheptyl)phenyl]-trans-4-(3-hydroxypropyl)-cyclohexanol as previously described [S1]. Briefly, membrane preparations of Chinese hamster ovary (CHO) cells stably expressing human CB1 or CB2 receptor were used (30 μg of protein/well for CB1 and 16 µg of protein/well for CB2-receptor preparations). All stock solutions of test compounds ([…]) were prepared in DMSO. After 2 h of incubation, a mixture containing 15 μL of the […]
(§3) mM MgCl2, 0.1% BSA, pH 7.4), 60 μL of membrane preparation (in 50 mM TRIS buffer) and 465 μL of assay buffer, were filtered through GF/C glass fiber filters (presoaked for 0.5 h in 0.3% aq. polyethyleneimine solution), using a Brandel 96-channel cell harvester (Brandel, Gaithersburg, MD). Radioactivity on the filters was then measured in a liquid scintillation counter (Topcount NXT, Packard/Perkin-Elmer) after 10 h of preincubation with 50 µl of scintillation cocktail (Multiscint 25, Perkin-Elmer). […]

The target of assay [2] is T2, Human CB2 receptor (Homo sapiens, UniProt P34972). In words: Radioligand binding assay vs [3H]CP55,940, membranes of CHO cells expressing human CB2. More on the design: expressed in transfected cells; membrane preparations. The note with it: CHO cell membranes. The procedure: as §1, §2, §3
The test system of another assay is control HEK293 cells. In words: Trupath BRET2 assay in control HEK293 cells transfected with only Gαi1-Rluc8, ß3 and γ9-GFP2. In kind it is cell-based. The following applies: cells without CB receptor. (BRET reads energy transfer from a luciferase to a nearby fluorophore.)
Assay [3] addresses T2, Human CB2 receptor. Description: Trupath BRET2 functional assay in HEK293 cells transfected with human CB2. More on the design: expressed in transfected cells; host or cells: HEK293 cells, transient transfection (Lipofectamine 2000); receptor in pcDNA3.1(+); Trupath plasmids Addgene kit #1000000163. It counts as cell-based. The following applies: for agonistic activity at human CB2: agonist mode, BRET2. How it is done: (§4) Functional assays at CB1 and CB2 receptors
(§5) Functional assays of the selected compounds were assessed using the Trupath BRET 2 assay system as recently described [S2]. The Trupath plasmids were a gift from Bryan Roth’s Laboratory (Addgene kit #1000000163). Briefly, HEK293 cells were seeded in a 6 well-plate at adensity of 700.000 cells/well and incubated for 4h. Plasmids containing Gαi1-Rluc8, ß3 and γ9-GFP2 and either human CB 1 or CB2 in pcDNA3.1(+) at a ratio of 1:1:1:1 were mixed with Lipofectamine 2000 and transfected according to the manufacturer’s protocol. The cells were further incubated overnight, then harvested and seeded at a density of 40.000 cells/well in 96 well-plates with full growth medium, and cultured for another 24h. On the day of the […]
(§6) culture medium was carefully discarded and replaced by 60 µL of HBSS-HEPES buffer, followed by the addition of 10 µL of 50 µM Coelenterazine 400a. For testing of agonistic activity, the test compounds were added to the wells in a volume of 30 µL and incubated for 5 min. For antagonist testing, compounds were added in a volume of 15 µL, incubated for 5 min, […]
(§7) incubated for another 5 min. Test compounds were dissolved in DMSO and the final DMSO concentration in the assays was 1%. Finally, the signal was measured using a Mitras LB400 according to previously published literature[S3]. Data were obtained from 3-4independent experiments performed in duplicate.

Assay [4] addresses T1, Human CB1 receptor. In words: Trupath BRET2 functional assay in HEK293 cells transfected with human CB1. The note with it: for agonistic activity at human CB1: agonist mode, BRET2; for IC50: read-out: IC50, blockade of CB1 receptor activation. More on the design: expressed in transfected cells; host or cells: HEK293 cells, transient transfection (Lipofectamine 2000); receptor in pcDNA3.1(+); Trupath plasmids Addgene kit #1000000163. It counts as cell-based. How it is done: as §4, §5, §6, §7

Assay [5] addresses T1, Human CB1 receptor. More on the design: method as in PMID 7565624. The following applies: previously reported; cited from earlier work.
The next assay has as its system CB1 receptors. More on the design: method as in PMID 19286662. The following applies: previously shown; cited from earlier work.
The target of assay [6] is T2, Human CB2 receptor. More on the design: expressed in transfected cells; membrane preparations; method as in PMID 7565624. The note with it: previously reported; cited from earlier work.

SMILES strings stand for the structures. “Also recorded” adds a separate entry of the source. Read-outs that look alike come from different tables or passages of the source.

T1 sequence (P21554 whole entry): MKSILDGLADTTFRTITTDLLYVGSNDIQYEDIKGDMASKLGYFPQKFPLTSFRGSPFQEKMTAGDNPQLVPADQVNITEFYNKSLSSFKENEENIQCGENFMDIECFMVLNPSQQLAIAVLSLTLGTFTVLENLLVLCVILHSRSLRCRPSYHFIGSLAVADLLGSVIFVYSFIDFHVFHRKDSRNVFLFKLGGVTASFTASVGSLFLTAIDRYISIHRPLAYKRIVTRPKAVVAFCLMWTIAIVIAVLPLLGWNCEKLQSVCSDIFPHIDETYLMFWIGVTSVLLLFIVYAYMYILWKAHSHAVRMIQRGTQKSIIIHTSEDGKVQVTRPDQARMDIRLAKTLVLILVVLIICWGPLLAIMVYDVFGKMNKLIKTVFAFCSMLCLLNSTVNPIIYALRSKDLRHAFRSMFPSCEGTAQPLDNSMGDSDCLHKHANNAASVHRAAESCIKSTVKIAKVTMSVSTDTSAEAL
T2 sequence (P34972 whole entry): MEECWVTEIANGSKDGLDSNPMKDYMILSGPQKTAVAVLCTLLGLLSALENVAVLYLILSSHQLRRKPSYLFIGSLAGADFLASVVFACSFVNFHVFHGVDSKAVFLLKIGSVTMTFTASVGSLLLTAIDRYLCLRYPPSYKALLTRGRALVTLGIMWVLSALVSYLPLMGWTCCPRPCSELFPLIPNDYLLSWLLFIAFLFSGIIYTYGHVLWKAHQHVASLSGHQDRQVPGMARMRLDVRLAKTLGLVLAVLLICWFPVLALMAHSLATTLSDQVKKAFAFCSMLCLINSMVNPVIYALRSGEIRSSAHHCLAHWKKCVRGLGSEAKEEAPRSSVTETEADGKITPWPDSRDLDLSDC

As for `COc1ccc2[nH]cc(C(c3ccccc3)(c3c[nH]c4ccccc34)C(F)(F)F)c2c1` (stereo not shown) [3a, 5-methoxy-3-(2,2,2-trifluoro-1-(1H-indol-3-yl)-1-phenylethyl)-1H-indole], the Ki on Human CB1 receptor [1] turned out to be 4.23 ± 0.03 µM; at Human CB2 receptor [2], 6.04 ± 0.11 µM.

On to `COc1ccc2[nH]cc(C(c3ccccc3)(c3c[nH]c4ccccc34)C(F)(F)C(F)(F)F)c2c1` (stereo not shown) [3ad], for which the “effect in non-transfected control cells” value with control HEK293 cells is “did not show any effect”. Further, the “agonistic activity at human CB2” value on Human CB2 receptor [3] is “no agonistic activity”. This compound also showed a Ki at Human CB1 receptor [1] of 1.82 ± 0.09 µM. Besides, the “inverse agonistic activity (effect on basal activity) at CB1” value at Human CB1 receptor [4] (BRET2, HEK293) is “less pronounced; also recorded: inverse agonistic activity”. For the same compound, at Human CB1 receptor [4], the “agonistic activity at human CB1” value is reported as “no agonistic activity” and the IC50 is 5.22 ± 0.68 µM. The compound also had a Ki at Human CB2 receptor [2] of 11.2 ± 0.5 µM.

On to `COc1ccc2[nH]cc(C(c3ccccc3)(c3c[nH]c4cccc(OC)c34)C(F)(F)F)c2c1` (stereo not shown) [3b], for which the figures for the Ki on Human CB1 receptor [1] and on Human CB2 receptor [2] were 7.64 ± 0.8 µM and 4.75 ± 0.34 µM, respectively.

In the case of `COc1ccc2[nH]cc(C(c3ccccc3)(c3c[nH]c4cc(F)ccc34)C(F)(F)F)c2c1` (stereo not shown) [3e], the “agonistic activity at human CB2” value at Human CB2 receptor [3] was “no agonistic activity”. Also, the “inhibition of CB2 receptor activation” value against Human CB2 receptor [3] (antagonist mode, CP55,940 at its EC80, compared with CB1) is “weaker”. For the same compound, the Ki at Human CB1 receptor [1] came out at 3.21 ± 0.25 µM. Further, on Human CB1 receptor [4] (BRET2, HEK293), the “inverse agonistic activity (effect on basal activity) at CB1” value is “reduced the basal activity; also recorded: inverse agonistic activity”. Also, at Human CB1 receptor [4], the “agonistic activity at human CB1” value is reported as “no agonistic activity” and the IC50 came to 5.68 ± 0.54 µM. Also, at Human CB1 receptor [4] (reduction of basal activity, BRET2, HEK293, read-out: EC50, inverse agonist at CB1 receptors), the 50% effective concentration (EC50) is 0.786 ± 0.233 µM. On Human CB2 receptor [2], the Ki was 4.47 ± 0.12 µM.

`COc1ccc2[nH]cc(C(c3ccccc3)(c3c[nH]c4c(Br)cccc34)C(F)(F)F)c2c1` (stereo not shown) [3g]: the inhibition constant (Ki) was found to be 4.02 ± 0.22 µM at Human CB1 receptor [1] and 4.62 ± 0.33 µM on Human CB2 receptor [2].

For `COc1ccc2[nH]cc(C(c3ccccc3)(c3c[nH]c4cc(F)c(F)cc34)C(F)(F)F)c2c1` (stereo not shown) [3h], the Ki at Human CB1 receptor [1] is 4.78 ± 1.26 µM; on Human CB2 receptor [2] it was 9.9 ± 1.45 µM.

As for `Fc1cc2[nH]cc(C(c3ccccc3)(c3c[nH]c4ccccc34)C(F)(F)F)c2cc1F` (stereo not shown) [3n], the Ki was found to be 2.04 ± 0.08 µM at Human CB1 receptor [1] and 6.14 ± 0.13 µM at Human CB2 receptor [2].

In the case of `c1ccc2c(Cc3c[nH]c4ccccc34)c[nH]c2c1` [I, diindolylmethane], the Ki is 4.3 µM on Human CB1 receptor [5] and 1.1 µM on Human CB2 receptor [6]. For the same compound, the “functional activity at CB1 receptors” value with CB1 receptors was “weak inverse agonist”.

The record behind these values is publication PMC8218542, “Iodine-catalyzed electrophilic substitution of indoles: Synthesis of (un)symmetrical diindolylmethanes with a quaternary carbon center” (Beilstein Journal of Organic Chemistry, 2021).
